In ChEMBL document CHEMBL3108744, “Heronamides D-F, polyketide macrolactams from the deep-sea-derived Streptomyces sp. SCSIO 03032” (J Nat Prod, 2014) one finds MIC, Activity and IC50 data, which are given here for 4 molecules.

Active and inactive are the calls of the source. The rule behind the calls is not given here.

Usually MIC stands for the least concentration at which growth counts as inhibited. One may read the IC50 as the midpoint of a concentration-inhibition curve. A low value points to higher potency.

In one assay the test system is Bacillus thuringiensis. Briefly: Antibacterial activity against Bacillus thuringiensis SCSIO BT01 assessed as growth inhibition by broth microdilution method. Type of assay: functional.
In the next assay the test system is Candida albicans. Nature of the assay: Antifungal activity against Candida albicans ATCC 10231 assessed as growth inhibition by broth microdilution method. Type of assay: functional. (Broth dilution looks for growth in wells or tubes with falling amounts of substance.)
Assay [1] relates to HUVEC. Briefly: Antimigratory activity in HUVEC at 11.8 uM up to 72 hrs by scratch wound healing assay relative to DMSO-treated control. Type of assay: functional, cell-based. As to conditions: Homo sapiens.
The subject of another assay is Escherichia coli. Briefly: Antibacterial activity against Escherichia coli ATCC 25922 assessed as growth inhibition by broth microdilution method. In kind it is functional.
Assay [2] relates to Radical scavenging activity. Briefly: Antioxidant activity of the compound assessed as DPPH radical scavenging activity after 30 mins by spectrophotometric analysis. In kind it is functional.
A further assay has as its system SF-268. Briefly: Cytotoxicity against human SF268 cells by SRB assay. Type of assay: functional, cell-based. On the technique in general: The SRB assay estimates cell density from bound dye.
The test system of the next assay is Bacillus subtilis. Nature of the assay: Antibacterial activity against Bacillus subtilis SCSIO BS01 assessed as growth inhibition by broth microdilution method. Type of assay: functional.
A further assay relates to NCI-H460. Nature of the assay: Cytotoxicity against human NCI-H460 cells by SRB assay. Type of assay: functional, cell-based.
The next assay relates to Staphylococcus aureus. Nature of the assay: Antibacterial activity against Staphylococcus aureus ATCC 29213 assessed as growth inhibition by broth microdilution method. In kind it is functional.
The subject of the next assay is MCF7. Nature of the assay: Cytotoxicity against human MCF7 cells by SRB assay. Type of assay: functional, cell-based.
Assay [3] deals with HUVEC. Briefly: Antimigratory activity in HUVEC at 17.1 uM up to 72 hrs by scratch wound healing assay relative to DMSO-treated control. The note with it: Homo sapiens. In kind it is functional, cell-based.

Take `C/C=C/C=C/C[C@@H]1C/C=C/C=C(C)/C=C/C=C\[C@@H](O)[C@@H](O)/C=C(C)/C=C/C=C/C(=O)N1`: the MIC in the assay with Bacillus thuringiensis, in the assay on Candida albicans, with Escherichia coli, with Bacillus subtilis and in the assay with Staphylococcus aureus was over 128 µg/mL in each case. Moreover, the outcome (in the assay with HUVEC [1]; in [2]) was inactive. In addition, the IC50 in the assay on SF-268, with NCI-H460 and with MCF7 was over 100 µM in each case.

With `C/C=C/C=C/C[C@@H]1C[C@H](O)[C@H]2[C@@H]3/C(C)=C/[C@H]4C=C[C@@H](O)[C@@H](O)[C@@H]4/C(C)=C/C=C\[C@@H]3C(=O)N12`, the minimal inhibitory concentration (MIC) with Bacillus thuringiensis, with Candida albicans, in the assay on Escherichia coli, with Bacillus subtilis and in the assay with Staphylococcus aureus was over 128 µg/mL throughout. The outcome (in [2]; in the assay on HUVEC [3]) was inactive. Further, the half-inhibitory concentration (IC50) in the assay with SF-268, with NCI-H460 and in the assay on MCF7 was over 100 µM throughout.

Take `C/C=C/C=C/C[C@@H]1C/C=C/C=C(C)/C=C/C=C\[C@@H](OC(C)=O)[C@@H](OC(C)=O)/C=C(C)/C=C/C=C/C(=O)N1`: the MIC in the assay with Bacillus thuringiensis, with Candida albicans, in the assay with Escherichia coli, with Bacillus subtilis and in the assay with Staphylococcus aureus was over 128 µg/mL in each case. In addition, the half-maximal inhibitory concentration (IC50) turned out to be 23.3 µM in the assay with SF-268, 56.4 µM in the assay on NCI-H460 and 15.4 µM with MCF7.

As to `C/C=C/C=C/C[C@@H]1C[C@@H]2/C=C/C(C)=C/[C@H]3C=C[C@@H](O)[C@@H](O)[C@@H]3/C(C)=C/C=C/[C@H]2C(=O)N1`, the MIC in the assay with Bacillus thuringiensis, in the assay with Candida albicans, in the assay on Escherichia coli, with Bacillus subtilis and with Staphylococcus aureus was over 128 µg/mL each time. The result in [2] was inactive. Moreover, the IC50 with SF-268, with NCI-H460 and in the assay with MCF7 was over 100 µM throughout.
